These results are taken from US20140179655A1, “SOLID ORAL DOSAGE FORM OF TE[…]” (Solural Pharma ApS, priority 2012, published 2014).

The conditions of data set [1]: cited from earlier work.
Data set [2] in a line: Estimate of maximal amount of lymphatic absorbed TU. The note with it: 25% of solubility x 120 mg/g x 3.5 g triglyceride/10 h; formulation of 600 mg fat. From the text: The maximal amount of lymphatic absorbed TU can be estimated from the solubility of Testosterone Undecanoate in triglyceride and the transported triglyceride (Int. J. Pharm., vol. 34, 175-178, 1986).

For the compound `CCCCCCCCCCC(=O)O[C@H]1CC[C@H]2[C@@H]3CCC4=CC(=O)CC[C@]4(C)[C@H]3CC[C@]12C` [Testosterone Undecanoate], the solubility in triglyceride in data set [1] was 120 mg/g. Moreover, the “maximal amount of lymphatic absorbed TU” value in data set [2] is given as approximately 100 mg.
